Test results from ChEMBL document CHEMBL4219205, “Utilizing a structure-based docking approach to develop potent G protein-coupled receptor kinase (GRK) 2 and 5 inhibitors” (Bioorg Med Chem Lett, 2018).

What was measured:
Rhodopsin kinase GRK1 = target: T1, Rhodopsin kinase GRK1 (Homo sapiens, UniProt Q15835); test: Inhibition of GRK1 (unknown origin) preincubated for 10 mins followed by peptide substrate and ATP addition measured after 1 hr by TR-FRET assay
T1 sequence (Q15835 whole entry): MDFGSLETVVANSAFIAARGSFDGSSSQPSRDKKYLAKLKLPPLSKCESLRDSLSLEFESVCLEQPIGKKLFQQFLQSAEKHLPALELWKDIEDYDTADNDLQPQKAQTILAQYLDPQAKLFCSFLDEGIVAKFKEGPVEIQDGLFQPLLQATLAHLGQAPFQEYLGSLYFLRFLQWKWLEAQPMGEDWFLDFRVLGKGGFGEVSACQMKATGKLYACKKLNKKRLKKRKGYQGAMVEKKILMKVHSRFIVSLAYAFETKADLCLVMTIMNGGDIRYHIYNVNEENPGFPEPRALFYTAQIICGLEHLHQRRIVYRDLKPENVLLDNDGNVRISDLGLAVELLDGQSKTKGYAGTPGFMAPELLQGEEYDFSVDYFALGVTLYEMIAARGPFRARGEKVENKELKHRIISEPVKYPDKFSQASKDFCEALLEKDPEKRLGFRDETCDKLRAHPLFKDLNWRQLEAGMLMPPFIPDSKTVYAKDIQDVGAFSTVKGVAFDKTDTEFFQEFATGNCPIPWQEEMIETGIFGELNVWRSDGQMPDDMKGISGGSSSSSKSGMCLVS

[1] = target: T2, Beta-adrenergic receptor kinase 1 (Homo sapiens, UniProt P25098); test: Inhibition of GRK2 (unknown origin) preincubated for 10 mins followed by peptide substrate and ATP addition measured after 1 hr by TR-FRET assay
T2 sequence (P25098 whole entry): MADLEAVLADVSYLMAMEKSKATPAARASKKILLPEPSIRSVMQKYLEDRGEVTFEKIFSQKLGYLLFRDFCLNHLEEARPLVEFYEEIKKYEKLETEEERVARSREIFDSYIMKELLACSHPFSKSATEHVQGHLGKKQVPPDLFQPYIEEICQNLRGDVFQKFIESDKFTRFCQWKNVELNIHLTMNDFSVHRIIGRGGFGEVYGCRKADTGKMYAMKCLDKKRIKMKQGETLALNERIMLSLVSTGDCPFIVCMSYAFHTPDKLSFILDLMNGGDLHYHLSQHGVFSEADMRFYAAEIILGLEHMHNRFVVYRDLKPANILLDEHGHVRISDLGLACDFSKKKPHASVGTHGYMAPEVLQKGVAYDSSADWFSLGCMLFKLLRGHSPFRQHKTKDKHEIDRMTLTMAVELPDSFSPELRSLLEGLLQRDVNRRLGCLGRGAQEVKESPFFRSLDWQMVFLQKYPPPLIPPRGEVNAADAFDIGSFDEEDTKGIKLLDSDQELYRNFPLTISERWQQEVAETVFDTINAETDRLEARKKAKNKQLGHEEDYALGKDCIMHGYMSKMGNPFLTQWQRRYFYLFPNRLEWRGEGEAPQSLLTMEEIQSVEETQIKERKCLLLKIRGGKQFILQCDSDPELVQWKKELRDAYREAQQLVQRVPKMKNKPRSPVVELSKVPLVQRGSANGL

[2] = target: G protein-coupled receptor kinase 5 (Homo sapiens, UniProt P34947); test: Inhibition of GRK5 (unknown origin) preincubated for 10 mins followed by peptide substrate and ATP addition measured after 1 hr by TR-FRET assay
Homo sapiens = organism: Homo sapiens; test: Selectivity ratio of IC50 for GRK5 (unknown origin) to IC50 for GRK2 (unknown origin) by phosphorylation assay

Chain of G protein-coupled receptor kinase 5 (P34947 whole entry): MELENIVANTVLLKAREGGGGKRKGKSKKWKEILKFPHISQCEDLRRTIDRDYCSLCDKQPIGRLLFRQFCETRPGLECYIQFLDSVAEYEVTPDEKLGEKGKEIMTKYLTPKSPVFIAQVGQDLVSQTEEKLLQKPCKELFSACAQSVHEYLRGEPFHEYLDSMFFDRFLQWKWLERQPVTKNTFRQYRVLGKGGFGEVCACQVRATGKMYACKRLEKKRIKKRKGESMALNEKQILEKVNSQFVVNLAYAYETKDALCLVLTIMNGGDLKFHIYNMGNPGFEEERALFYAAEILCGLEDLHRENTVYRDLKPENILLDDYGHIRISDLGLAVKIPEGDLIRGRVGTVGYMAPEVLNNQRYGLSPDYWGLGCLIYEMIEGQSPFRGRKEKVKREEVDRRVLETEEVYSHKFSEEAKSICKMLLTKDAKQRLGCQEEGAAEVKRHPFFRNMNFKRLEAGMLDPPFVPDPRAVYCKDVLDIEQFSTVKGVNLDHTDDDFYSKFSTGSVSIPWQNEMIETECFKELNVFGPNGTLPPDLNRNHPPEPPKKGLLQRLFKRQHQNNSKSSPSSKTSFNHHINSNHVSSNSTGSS

Row | SMILES | IC50 (Rhodopsin kinase GRK1) [µM] | IC50 [1] [µM] | IC50 [2] [µM] | Ratio IC50 (Homo sapiens)
1 | CC1=C(C(=O)Nc2ccc3[nH]ncc3c2)C(c2ccc(F)c(CC(=O)N3Cc4ccc(C)cc4C3)c2)NC(=O)N1 (stereo not drawn) | > 100 | 0.2 | 6.3 | –
2 | CCC(C)CN(CCO)C(=O)Cc1cc(C2NC(=O)NC(C)=C2C(=O)Nc2ccc3[nH]ncc3c2)ccc1F (stereo not drawn) | > 100 | 0.83 | 9.3 | –
3 | CC#CCN(CCCC)C(=O)Cc1cc(C2NC(=O)NC(C)=C2C(=O)Nc2ccc3[nH]ncc3c2)ccc1F (stereo not drawn) | > 100 | 0.43 | 2.4 | –
4 | COc1ccccc1C(C)NC(=O)c1cc(C2NC(=O)NC(C)=C2C(=O)Nc2ccc3[nH]ncc3c2)ccc1F (stereo not drawn) | 16 | 0.4 | – | –
5 | CC1=C(C(=O)Nc2ccc3[nH]ncc3c2)C(c2ccc(F)c(C(=O)N(C)CC3CCCCO3)c2)NC(=O)N1 (stereo not drawn) | > 100 | 14 | > 100 | –
6 | CC1=C(C(=O)Nc2ccc3[nH]ncc3c2)C(c2ccc(F)c(CCC(=O)NCC3(C)CCCCC3)c2)NC(=O)N1 (stereo not drawn) | > 100 | 1.8 | > 100 | –
7 | CCC(C)N(C)C(=O)c1cc(C2NC(=O)NC(C)=C2C(=O)Nc2ccc3[nH]ncc3c2)ccc1F (stereo not drawn) | > 100 | 44 | > 100 | –
8 | CC1=C(C(=O)Nc2ccc3[nH]ncc3c2)C(c2ccc(F)c(CCC(=O)NCCc3ccccc3)c2)NC(=O)N1 (stereo not drawn) | > 100 | 4.7 | > 100 | –
9 | CC1=C(C(=O)Nc2ccc3[nH]ncc3c2)C(c2ccc(F)c(CCC(=O)N(CC(C)C)C(C)C)c2)NC(=O)N1 (stereo not drawn) | > 100 | 12 | > 100 | –
10 | CCCCCCC(C)NC(=O)c1cc(C2NC(=O)NC(C)=C2C(=O)Nc2ccc3[nH]ncc3c2)ccc1F (stereo not drawn) | > 100 | 4.1 | – | –
11 | CC1=C(C(=O)Nc2ccc3[nH]ncc3c2)C(c2ccc(F)c(C(=O)NCC(C)N3CCCCCC3)c2)NC(=O)N1 (stereo not drawn) | > 100 | 1.2 | – | –
12 | C#CCN(Cc1ccco1)C(=O)Cc1cc(C2NC(=O)NC(C)=C2C(=O)Nc2ccc3[nH]ncc3c2)ccc1F (stereo not drawn) | > 100 | 0.92 | 3.5 | –
13 | CC1=C(C(=O)Nc2ccc3[nH]ncc3c2)C(c2ccc(F)c(C(=O)NCCc3c(C)noc3C)c2)NC(=O)N1 (stereo not drawn) | > 100 | 0.64 | – | –
14 | CC1=C(C(=O)Nc2ccc3[nH]ncc3c2)C(c2ccc(F)c(CC(=O)N(CCCO)CCCO)c2)NC(=O)N1 (stereo not drawn) | > 100 | 0.75 | – | –
15 | COCc1noc(CNC(=O)c2cc(C3NC(=O)NC(C)=C3C(=O)Nc3ccc4[nH]ncc4c3)ccc2F)n1 (stereo not drawn) | 30 | 0.25 | – | –
16 | CC1=C(C(=O)Nc2ccc3[nH]ncc3c2)C(c2ccc(F)c(C(=O)NC3CN4CCC3CC4)c2)NC(=O)N1 (stereo not drawn) | > 100 | 0.5 | – | –
17 | CC1=C(C(=O)Nc2ccc3[nH]ncc3c2)C(c2ccc(F)c(CC(=O)N(CCO)Cc3ccco3)c2)NC(=O)N1 (stereo not drawn) | 26 | 0.46 | 1.7 | –
18 | COCCCC1CCCCN1C(=O)c1cc(C2NC(=O)NC(C)=C2C(=O)Nc2ccc3[nH]ncc3c2)ccc1F (stereo not drawn) | > 100 | 29 | > 100 | –
19 | COC(=O)C1(NC(=O)c2cc(C3NC(=O)NC(C)=C3C(=O)Nc3ccc4[nH]ncc4c3)ccc2F)CCCCC1 (stereo not drawn) | 83 | 0.16 | – | –
20 | CC1=C(C(=O)Nc2ccc3[nH]ncc3c2)C(c2ccc(F)c(C(=O)NCc3cn4ccccc4n3)c2)NC(=O)N1 (stereo not drawn) | 17 | 0.54 | 1.9 | 3.5
21 | CCCOC1CCN(C(=O)Cc2cc(C3NC(=O)NC(C)=C3C(=O)Nc3ccc4[nH]ncc4c3)ccc2F)C1 (stereo not drawn) | > 100 | 1.6 | – | –
22 | CC1=C(C(=O)Nc2ccc3[nH]ncc3c2)C(c2ccc(F)c(CC(=O)N(CCO)CCC(C)C)c2)NC(=O)N1 (stereo not drawn) | > 100 | 1.5 | – | –
23 | CC1=C(C(=O)Nc2ccc3[nH]ncc3c2)C(c2ccc(F)c(CC(=O)N3CCC4CCC(C3)N4C)c2)NC(=O)N1 (stereo not drawn) | > 100 | 2.1 | 6.1 | –
24 | CCC1(O)CCCN(C(=O)CCc2cc(C3NC(=O)NC(C)=C3C(=O)Nc3ccc4[nH]ncc4c3)ccc2F)C1 (stereo not drawn) | > 100 | 29 | > 100 | –
25 | CC1=C(C(=O)Nc2ccc3[nH]ncc3c2)C(c2ccc(F)c(C(=O)NC(C)CCCC(C)C)c2)NC(=O)N1 (stereo not drawn) | > 100 | 4.1 | > 100 | –
26 | CC1=C(C(=O)Nc2ccc3[nH]ncc3c2)C(c2ccc(F)c(CCC(=O)NCC3(CO)CC3)c2)NC(=O)N1 (stereo not drawn) | > 100 | 3.8 | > 100 | –
27 | CC1=C(C(=O)Nc2ccc3[nH]ncc3c2)C(c2ccc(F)c(C(=O)NCc3cnc4c(c3)CCC4)c2)NC(=O)N1 (stereo not drawn) | > 100 | 0.34 | 9.5 | –

Continued, in another order:

Row | IC50 (Rhodopsin kinase GRK1) [µM] | IC50 [1] [µM] | IC50 [2] [µM] | SMILES | Ratio IC50 (Homo sapiens)
28 | > 100 | – | – | CC1=C(C(=O)Nc2ccc3[nH]ncc3c2)C(c2ccc(F)c(CCC(=O)NCc3ncc(C)o3)c2)NC(=O)N1 (stereo not drawn) | –
29 | 3 | – | – | CCc1nc(CNC(=O)c2cc(C3NC(=O)NC(C)=C3C(=O)Nc3ccc4[nH]ncc4c3)ccc2F)no1 (stereo not drawn) | –
30 | > 100 | – | – | CC1=C(C(=O)Nc2ccc3[nH]ncc3c2)C(c2ccc(F)c(CC(=O)N3CCOC(CCO)C3)c2)NC(=O)N1 (stereo not drawn) | –
31 | > 100 | 2 | – | CC1=C(C(=O)Nc2ccc3[nH]ncc3c2)C(c2ccc(F)c(CC(=O)N(C)Cc3nc(C)c[nH]3)c2)NC(=O)N1 (stereo not drawn) | –
32 | > 100 | 1.9 | – | CC1=C(C(=O)Nc2ccc3[nH]ncc3c2)C(c2ccc(F)c(CC(=O)NC3CC(=O)N(C)C3)c2)NC(=O)N1 (stereo not drawn) | –
33 | > 100 | 1.4 | – | CC1=C(C(=O)Nc2ccc3[nH]ncc3c2)C(c2ccc(F)c(CC(=O)NCc3ccc(C#N)nc3)c2)NC(=O)N1 (stereo not drawn) | –
34 | > 100 | 3.5 | > 100 | CC1=C(C(=O)Nc2ccc3[nH]ncc3c2)C(c2ccc(F)c(CC(=O)N3CCCC(C(C)(C)C)CC3)c2)NC(=O)N1 (stereo not drawn) | –
35 | > 100 | 2.4 | 13 | C#CCN(CC(C)C)C(=O)Cc1cc(C2NC(=O)NC(C)=C2C(=O)Nc2ccc3[nH]ncc3c2)ccc1F (stereo not drawn) | –
36 | > 100 | – | – | CC1=C(C(=O)Nc2ccc3[nH]ncc3c2)C(c2ccc(F)c(CC(=O)NCC3CCN(C4CC4)CC3)c2)NC(=O)N1 (stereo not drawn) | –
37 | > 100 | 1.9 | – | CCC(C)N(CO)C(=O)Cc1cc(C2NC(=O)NC(C)=C2C(=O)Nc2ccc3[nH]ncc3c2)ccc1F (stereo not drawn) | –
38 | > 100 | 1.9 | > 100 | CC1=C(C(=O)Nc2ccc3[nH]ncc3c2)C(c2ccc(F)c(CC(=O)NCc3cc(C)ccc3C)c2)NC(=O)N1 (stereo not drawn) | –
39 | > 100 | 1.1 | – | CC1=C(C(=O)Nc2ccc3[nH]ncc3c2)C(c2ccc(F)c(C(=O)N(C)Cc3cc(C)[nH]n3)c2)NC(=O)N1 (stereo not drawn) | –
40 | > 100 | 4.6 | > 100 | CC1=C(C(=O)Nc2ccc3[nH]ncc3c2)C(c2ccc(F)c(C(=O)NC3CC4CCC3(C)C4(C)C)c2)NC(=O)N1 (stereo not drawn) | –
